Reference: article PMC8879496 (Pharmaceutics, 2022)
Read-outs that look alike come from different tables or passages of the source.

Legend:
[1] = system: NA of H5N1 influenza virus; conditions: cited from earlier work
SARS-CoV = test: microbe, parasite or virus in culture; format: cell-based; conditions: Severe acute respiratory syndrome coronavirus, Vero, 24 h, read-out: IC50, SARS-CoV inhibition
C57BL/6 mice = test: Five-day repeated-dose toxicity study; conditions: male and female mice; for clinical signs and animal death: IP 10 mg/kg, observed for 6 days; for approximately lethal dose: IP 10 mg/kg/day for 5 days
SARS-CoV-2 = test: microbe, parasite or virus in culture; format: cell-based; conditions: Severe acute respiratory syndrome coronavirus 2, Vero, 24 h; read-out: IC50, SARS-CoV-2 inhibition
in vitro = conditions: African green monkey
SARS-CoV-2 Mpro = SARS-CoV-2 Mpro (Severe acute respiratory syndrome coronavirus 2, UniProt P0DTD1); test: SARS-CoV-2 Mpro activity assay (assay kit, fluorescence); format: biochemical
Protocol: SARS-CoV-2 Mpro activity was measured using the SARS-CoV-2 Mpro assay kit (BPS Bioscience, San Diego, CA, USA) according to the manufacturer’s instructions. The samples were evaluated in duplicated, serially diluted concentrations. The fluorescence intensity of low binding, black, 96-well microtiter plates was detected at an excitation wavelength of 360 nm and an emission wavelength of 460 nm using a microplate spectrophotometer (Bio-Tek, Winooski, VT, USA).

MERS-CoV = test: microbe, parasite or virus in culture; format: cell-based; conditions: Middle East respiratory syndrome-related coronavirus, Vero, 24 h, read-out: IC50, MERS-CoV inhibition, Vero cells, 0.0625 MOI, 24 h post-infection, spike staining
CYP2C9 = CYP2C9 (Homo sapiens, UniProt P11712); test: CYP450 enzyme inhibition, CYP2C9
CYP2C9, sequence (P11712 whole entry): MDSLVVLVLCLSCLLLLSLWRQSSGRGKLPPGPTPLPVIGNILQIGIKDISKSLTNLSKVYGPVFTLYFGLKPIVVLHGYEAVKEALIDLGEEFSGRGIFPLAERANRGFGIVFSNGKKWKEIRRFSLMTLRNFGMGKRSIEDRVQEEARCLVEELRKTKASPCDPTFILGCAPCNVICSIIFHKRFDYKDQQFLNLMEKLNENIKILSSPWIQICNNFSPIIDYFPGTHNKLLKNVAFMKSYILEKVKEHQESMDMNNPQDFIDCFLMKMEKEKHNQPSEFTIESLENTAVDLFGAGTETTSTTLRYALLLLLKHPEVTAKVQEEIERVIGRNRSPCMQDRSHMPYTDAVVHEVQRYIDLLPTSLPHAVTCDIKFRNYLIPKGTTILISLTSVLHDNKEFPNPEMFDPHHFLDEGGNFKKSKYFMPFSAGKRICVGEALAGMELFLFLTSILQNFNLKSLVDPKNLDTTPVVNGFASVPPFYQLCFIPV

CYP2D6 = CYP2D6 (Homo sapiens, UniProt P10635); test: CYP450 enzyme inhibition, CYP2D6
CYP2D6, sequence (P10635 whole entry): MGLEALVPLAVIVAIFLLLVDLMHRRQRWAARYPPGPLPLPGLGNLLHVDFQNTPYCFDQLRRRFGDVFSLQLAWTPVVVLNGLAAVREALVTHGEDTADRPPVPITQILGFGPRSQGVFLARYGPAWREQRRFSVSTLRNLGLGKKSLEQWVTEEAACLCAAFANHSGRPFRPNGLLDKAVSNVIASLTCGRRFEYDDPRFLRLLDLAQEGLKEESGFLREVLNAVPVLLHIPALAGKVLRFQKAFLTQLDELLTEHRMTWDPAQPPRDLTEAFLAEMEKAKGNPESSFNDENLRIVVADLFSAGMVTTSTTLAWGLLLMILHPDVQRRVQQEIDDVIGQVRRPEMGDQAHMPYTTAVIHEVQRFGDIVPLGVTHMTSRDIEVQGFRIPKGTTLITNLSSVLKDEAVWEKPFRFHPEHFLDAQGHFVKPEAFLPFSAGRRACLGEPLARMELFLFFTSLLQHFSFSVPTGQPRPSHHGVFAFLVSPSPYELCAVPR

influenza virus = conditions: read-out: IC50, anti-influenza virus activity; cited from earlier work
CYP1A2 = target: T1, CYP1A2 (Homo sapiens, UniProt P05177); test: CYP450 enzyme inhibition, CYP1A2
T1 sequence (P05177 1-516): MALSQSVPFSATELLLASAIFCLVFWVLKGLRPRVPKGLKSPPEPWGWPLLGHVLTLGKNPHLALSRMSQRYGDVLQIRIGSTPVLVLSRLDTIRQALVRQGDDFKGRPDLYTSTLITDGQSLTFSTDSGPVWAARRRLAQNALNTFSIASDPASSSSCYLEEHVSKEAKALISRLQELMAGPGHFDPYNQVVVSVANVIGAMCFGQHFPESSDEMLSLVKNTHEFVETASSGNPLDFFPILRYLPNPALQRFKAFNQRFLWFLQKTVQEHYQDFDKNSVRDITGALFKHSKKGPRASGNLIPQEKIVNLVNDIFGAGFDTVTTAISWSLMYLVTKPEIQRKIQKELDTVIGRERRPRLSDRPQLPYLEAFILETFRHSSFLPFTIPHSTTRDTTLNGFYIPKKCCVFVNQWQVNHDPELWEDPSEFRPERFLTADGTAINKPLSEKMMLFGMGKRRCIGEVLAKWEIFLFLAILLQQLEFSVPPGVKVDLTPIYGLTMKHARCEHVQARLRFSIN

CYP2C19 = CYP2C19 (Homo sapiens, UniProt P33261); test: CYP450 enzyme inhibition, CYP2C19
CYP2C19, sequence (P33261 whole entry): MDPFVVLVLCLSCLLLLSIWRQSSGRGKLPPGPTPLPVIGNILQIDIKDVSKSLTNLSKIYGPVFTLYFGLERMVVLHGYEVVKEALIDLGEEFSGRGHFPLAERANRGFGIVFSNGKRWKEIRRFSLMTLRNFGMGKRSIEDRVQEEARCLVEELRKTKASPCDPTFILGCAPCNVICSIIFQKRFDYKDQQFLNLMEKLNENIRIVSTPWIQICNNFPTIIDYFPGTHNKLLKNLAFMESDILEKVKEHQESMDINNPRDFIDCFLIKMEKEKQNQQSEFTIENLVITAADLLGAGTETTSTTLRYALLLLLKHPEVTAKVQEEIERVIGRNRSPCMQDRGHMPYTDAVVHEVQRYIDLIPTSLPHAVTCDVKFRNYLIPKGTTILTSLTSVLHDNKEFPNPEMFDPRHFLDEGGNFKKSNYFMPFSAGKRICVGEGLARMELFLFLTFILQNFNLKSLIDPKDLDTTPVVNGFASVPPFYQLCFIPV

[2] = Liver microsomal metabolic stability, rat; format: in vitro ADME; conditions: rat liver microsomes 0.5 mg protein/mL, 1 μM, 37 °C
Protocol: (§1) Liver microsome samples (0.5 mg protein/mL) from mouse, rat, and human (Corning, Glendale, AZ, USA) in PBS and the test compound (final concentration 1 μM) were mixed. Following the addition of the NADPH regenerating solution (Corning), the samples were incubated at 37 °C for 30 min. The reaction was stopped by the addition of ice-cold acetonitrile, and the samples were centrifuged at 4000 rpm for 15 min.

hERG K+ channel = hERG K+ channel (Homo sapiens, UniProt Q12809); test: hERG K+ channel automated planar patch clamp assay
hERG K+ channel, sequence (Q12809 whole entry): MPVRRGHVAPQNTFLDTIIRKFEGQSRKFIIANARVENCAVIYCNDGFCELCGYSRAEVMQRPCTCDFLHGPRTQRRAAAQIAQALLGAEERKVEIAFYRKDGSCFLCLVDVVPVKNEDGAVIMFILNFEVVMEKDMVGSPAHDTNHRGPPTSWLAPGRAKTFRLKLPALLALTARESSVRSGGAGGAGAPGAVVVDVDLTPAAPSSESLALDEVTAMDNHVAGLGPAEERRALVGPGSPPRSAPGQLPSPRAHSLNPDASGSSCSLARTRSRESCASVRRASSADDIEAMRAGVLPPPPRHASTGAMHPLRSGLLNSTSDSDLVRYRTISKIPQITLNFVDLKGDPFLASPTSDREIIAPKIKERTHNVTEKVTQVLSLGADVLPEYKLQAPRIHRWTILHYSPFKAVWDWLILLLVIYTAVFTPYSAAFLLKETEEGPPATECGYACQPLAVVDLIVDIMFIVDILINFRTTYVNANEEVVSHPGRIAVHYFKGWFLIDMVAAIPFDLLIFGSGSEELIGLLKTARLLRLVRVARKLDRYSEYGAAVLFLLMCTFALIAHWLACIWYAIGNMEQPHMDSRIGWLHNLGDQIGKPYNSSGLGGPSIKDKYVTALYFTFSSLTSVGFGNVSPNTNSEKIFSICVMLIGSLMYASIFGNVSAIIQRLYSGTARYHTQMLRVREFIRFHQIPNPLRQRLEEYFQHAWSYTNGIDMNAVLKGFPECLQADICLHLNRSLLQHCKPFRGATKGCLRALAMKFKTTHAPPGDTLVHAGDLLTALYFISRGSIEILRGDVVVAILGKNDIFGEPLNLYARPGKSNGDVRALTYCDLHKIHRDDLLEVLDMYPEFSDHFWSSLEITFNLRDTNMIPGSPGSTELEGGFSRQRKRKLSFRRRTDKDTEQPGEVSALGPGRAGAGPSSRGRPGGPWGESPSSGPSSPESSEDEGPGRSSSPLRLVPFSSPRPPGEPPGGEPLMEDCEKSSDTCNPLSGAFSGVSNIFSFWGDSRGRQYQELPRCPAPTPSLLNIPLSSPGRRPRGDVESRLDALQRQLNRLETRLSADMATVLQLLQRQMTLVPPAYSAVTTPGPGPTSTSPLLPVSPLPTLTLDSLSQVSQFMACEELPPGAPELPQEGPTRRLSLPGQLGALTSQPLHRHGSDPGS

CYP3A4 = CYP3A4 (Homo sapiens, UniProt P08684); test: CYP450 enzyme inhibition, CYP3A4
CYP3A4, sequence (P08684 whole entry): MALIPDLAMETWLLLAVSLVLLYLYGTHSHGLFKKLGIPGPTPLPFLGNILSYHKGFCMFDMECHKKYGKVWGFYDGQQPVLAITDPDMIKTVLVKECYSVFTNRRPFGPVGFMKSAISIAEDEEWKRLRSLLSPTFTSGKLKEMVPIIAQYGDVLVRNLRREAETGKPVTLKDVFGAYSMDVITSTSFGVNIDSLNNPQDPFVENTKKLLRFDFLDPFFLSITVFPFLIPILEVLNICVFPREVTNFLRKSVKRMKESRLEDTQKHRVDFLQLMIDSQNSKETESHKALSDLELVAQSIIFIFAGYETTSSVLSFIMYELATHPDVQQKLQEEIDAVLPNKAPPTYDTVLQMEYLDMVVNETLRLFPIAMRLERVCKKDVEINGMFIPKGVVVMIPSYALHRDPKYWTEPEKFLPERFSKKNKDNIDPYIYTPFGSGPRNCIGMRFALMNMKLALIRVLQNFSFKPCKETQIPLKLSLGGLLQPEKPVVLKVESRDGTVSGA

Plasma stability, rat = format: in vitro ADME; conditions: 37 °C
Protocol: (§2) Animal plasma (Innovative Research, Inc., Novi, MI, USA) and test compounds (5 μM) were incubated at 37 °C for 4 h. To prevent the reaction, cold acetonitrile was added.

[3] = Liver microsomal metabolic stability, mouse; format: in vitro ADME; conditions: mouse liver microsomes 0.5 mg protein/mL, 1 μM, 37 °C
Protocol: as §1

[4] = Pharmacokinetic study in mice; format: in vivo; conditions: for Cmax / Tmax: n = 3
Protocol: Seven-week-old male ICR mice were purchased from Nara Bio Co., Ltd. (Pyungtaek, Korea) and housed under 24 °C, 50% humidity, and 12 h day/night cycle conditions with access to standard chow and drinking water. Mice were acclimated for 1 week before the experiments. All animal procedures were approved by the KRICT Animal Care and Use Committee (ACUC approval number, DDP-7221). A total of 10 mg/kg of compound in a 5:40:55 ratio of DMSO:PEG400:DW was intraperitoneally or orally administered (n = 3). Blood samples were collected at 0.083–24 h after drug administration through the retro-orbital venous plexus and the plasma fraction was separated by centrifugation (15,000 rpm, 3 min). […] Mean plasma concentration–time data were calculated using noncompartmental methods (Phoenix WinNonlin software version 6.4; Pharsight Corporation, Mountain View, CA, USA).

Plasma stability, human = format: in vitro ADME; conditions: 37 °C, read-out: Plasma Stability (% Remaining), Hum
Protocol: as §2

[5] = Liver microsomal metabolic stability, human; format: in vitro ADME; conditions: human liver microsomes 0.5 mg protein/mL, 1 μM, 37 °C
Protocol: as §1

[6] = male, ICR, mouse, plasma, IP 10 mg/kg
[7] = male, ICR, mouse, plasma, PO 10 mg/kg

CCCC(=O)c1c(O)c(CC2=C(O)C(C)(C)C(O)=C(C(C)=O)C2=O)c(O)c(CC2=C(O)C(C)(C)C(O)=C(C(C)=O)C2=O)c1O [filixic acid ABA]
IC50 [1]: 29.6 ± 2.48 µM | IC50 (SARS-CoV): 4.56 ± 0.21 µM | clinical signs and animal death (C57BL/6 mice): No abnormal clinical signs and animal death | approximately lethal dose (C57BL/6 mice): > 10 mg/kg | IC50 (SARS-CoV-2): 25.9 ± 0.81 µM | CC50 (in vitro): > 50 µM | IC50 (SARS-CoV-2 Mpro; serially diluted compounds 3.125–100 μM, mean ± SEM, read-out: IC50, SARS-CoV-2 Mpro (3CL) activity): 39.6 ± 1.09 µM | IC50 (MERS-CoV): 2.68 ± 0.1 µM

CCCC(=O)c1c(O)c(CC2=C(O)C(C)(C)C(O)=C(C(C)=O)C2=O)c(O)c(Cc2c(O)c(CC3=C(O)C(C)(C)C(O)=C(C(C)=O)C3=O)c(O)c(C(=O)CCC)c2O)c1O [dryocrassin ABBA, Dryocrassin ABBA]
IC50 (CYP2C9): 0.4 µM | IC50 (CYP2D6): 13.5 µM | IC50 (influenza virus): 16.5 µM | IC50 (CYP1A2): 14.7 µM | IC50 [1]: 18.6 ± 4.53 µM | IC50 (CYP2C19): 16.1 µM | MS (%) (Remaining after 30 min), Rat [2]: >99% | IC50 (SARS-CoV): 0.8 ± 0.07 µM | inhibition at 10 µM (hERG K+ channel): 7.27% | IC50 (CYP3A4): 8.33 µM | clinical signs and animal death (C57BL/6 mice): No abnormal clinical signs and animal death | approximately lethal dose (C57BL/6 mice): > 10 mg/kg | IC50 (SARS-CoV-2): 22.4 ± 0.73 µM | CC50 (in vitro): > 50 µM | IC50 (SARS-CoV-2 Mpro): 46.5 ± 1.1 µM | remaining at 4 h, 5 μM (Plasma stability, rat): 67 ± 7.29% | MS (%) (Remaining after 30 min), Mice [3]: 68.3 ± 2.1% | AUC ([4]; IP 10 mg/kg, n = 3, 10 mg/kg): 65960 ± 8630 ng·h/mL | Cmax [4, 6]: 12800 ± 1790 ng/mL | Tmax [4, 6]: 1.17 ± 0.76 h | half-life ([4]; male, ICR, mouse, plasma, IP 10 mg/kg, n = 3, read-out: T1/2 (converted)): 5.5 ± 0.56 h | Cmax [4, 7]: 3640 ± 570 ng/mL | Tmax [4, 7]: 0.67 ± 0.29 h | half-life ([4]; male, ICR, mouse, plasma, PO 10 mg/kg, n = 3, read-out: T1/2 (converted)): 12.6 ± 3.76 h | AUC ([4]; male, ICR, mouse, plasma, ip, 10 mg/kg, IP 10 mg/kg, n = 3, read-out: AUC): 65000 ng·h/mL | AUC ([4]; male, ICR, mouse, plasma, other: intraperitoneal and oral (range over both arms), 10 mg/kg, in vivo, span over IP and PO 10 mg/kg (abstract), read-out: plasma exposure (AUC)): 19300 to 65000 ng·h/mL | half-life ([4]; male, ICR, mouse, plasma, other: intraperitoneal and oral (range over both arms), in vivo, span over IP and PO 10 mg/kg (abstract), read-out: half-life): 5.5 to 12.6 h | AUC ([4]; male, ICR, mouse, plasma, po, 10 mg/kg, PO 10 mg/kg, n = 3, read-out: AUC): 19300 ± 1420 ng·h/mL | IC50 (MERS-CoV): 1.31 ± 0.07 µM | remaining at 4 h, 5 μM (Plasma stability, human): 29.7 ± 8.37% | MS (%) (Remaining after 30 min), Hum [5]: >99%
